For 47 compounds, inhibition, IC50 and half-life results are on record in ChEMBL document CHEMBL3882724 (2013).

For series [1], the target named is T1, CYP21 (steroid 21-hydroxylase) (Homo sapiens, UniProt P08686).
T1 sequence (P08686 whole entry): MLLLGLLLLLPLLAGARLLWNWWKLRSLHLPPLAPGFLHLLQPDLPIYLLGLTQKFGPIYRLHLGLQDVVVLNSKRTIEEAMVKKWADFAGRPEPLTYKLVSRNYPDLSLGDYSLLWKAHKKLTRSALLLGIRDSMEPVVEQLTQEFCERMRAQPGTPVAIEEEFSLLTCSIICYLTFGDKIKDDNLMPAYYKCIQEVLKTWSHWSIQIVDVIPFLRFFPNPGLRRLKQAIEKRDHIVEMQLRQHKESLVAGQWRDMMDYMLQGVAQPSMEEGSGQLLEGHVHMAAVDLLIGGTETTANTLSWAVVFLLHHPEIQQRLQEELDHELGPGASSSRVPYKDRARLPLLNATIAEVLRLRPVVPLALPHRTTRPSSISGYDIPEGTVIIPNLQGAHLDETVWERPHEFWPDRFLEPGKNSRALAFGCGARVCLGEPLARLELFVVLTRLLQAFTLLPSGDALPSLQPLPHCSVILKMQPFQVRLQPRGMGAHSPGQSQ
In words: Inhibition of human CYP21 transfected in HEK293 cells assessed as decrease in conversion of progesterone to 11-deoxycorticosterone preincubated for 5 hrs followed by progesterone addition measured after 20 hrs by ELISA. Format: cell-based. Further details: concentration or dose not given beside the values. As to conditions: HEK293 cells transfected with human CYP21, probe progesterone. A general note: ELISA stands for enzyme-linked immunosorbent assay.

Series [2] concerns the target T2, Steroid 17-alpha-hydroxylase/17,20 lyase (Homo sapiens, UniProt P05093).
T2 sequence (P05093 whole entry): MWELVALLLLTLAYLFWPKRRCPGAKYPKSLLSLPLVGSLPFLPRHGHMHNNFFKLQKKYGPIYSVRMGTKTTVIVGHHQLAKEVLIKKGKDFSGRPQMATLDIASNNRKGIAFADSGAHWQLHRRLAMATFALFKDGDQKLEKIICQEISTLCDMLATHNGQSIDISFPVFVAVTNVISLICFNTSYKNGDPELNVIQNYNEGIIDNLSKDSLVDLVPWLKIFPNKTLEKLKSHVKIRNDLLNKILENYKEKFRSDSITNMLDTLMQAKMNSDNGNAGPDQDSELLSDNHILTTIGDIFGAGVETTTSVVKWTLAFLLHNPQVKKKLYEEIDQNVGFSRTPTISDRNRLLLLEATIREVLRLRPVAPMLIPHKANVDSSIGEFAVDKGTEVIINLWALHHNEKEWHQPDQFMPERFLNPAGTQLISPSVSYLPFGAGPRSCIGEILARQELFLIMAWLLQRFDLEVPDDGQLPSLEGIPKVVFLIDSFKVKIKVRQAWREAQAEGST
Briefly: Inhibition of CYP17 in human testicular microsomes using 17alpha-hydroxypregnenolone as substrate assessed as decrease in DHEA levels after 90 mins by ELISA. Further details: species or system Testis.

Series [3] in a line: Half life in human liver microsomes at 1 uM by LC-MS/MS analysis. (In general: Liver microsomes are a subcellular fraction often used to study metabolism.)

As to `CC1C[C@H]2C3=CC=C(c4ccc(F)nc4)[C@@]3(C)CC[C@@H]2[C@@]2(C)CCNC(=O)C=C12` (stereo partly drawn), the inhibition (usually the share of the control response that was lost under treatment) at 20 h in series [1] fell in the range of 10 to 50%.
Regarding `CC1C[C@H]2[C@@H]3CC=C(c4cccnc4)[C@@]3(C)CC[C@@H]2[C@@]2(C)CC[C@H](O)CC12O` (stereo partly drawn), in series [2], the concentration for half-maximal inhibition (IC50) – broadly, the concentration needed to halve the response being measured – is no more than 11 nM. The inhibition at 20 h in series [1] is no less than 50%.
For `C[C@]12CC(O)CC1CC[C@@H]1[C@@H]2CC[C@]2(C)C(c3cncc(Cl)c3)=CC[C@@H]12` (stereo partly drawn), the inhibition at 20 h in series [1] is 10 to 50%.
In the case of `C[C@]12CCC(=O)CC1C(=O)C[C@@H]1[C@@H]2CC[C@]2(C)C(c3cncc(F)c3)=CC[C@@H]12` (stereo partly drawn), the IC50 in series [2] is no more than 11 nM. For the same compound, the inhibition at 20 h in series [1] was no less than 50%.
Regarding `CC(=O)N[C@@H]1CC[C@@]2(C)C(CC[C@H]3C4=CC=C(c5cccnc5)[C@@]4(C)CC[C@@H]32)C1` (stereo partly drawn), the half-life (in general, the time in which the quantity being followed falls by half) at 1 µM in series [3] lay in the range of 1 to 50 min. Besides, the inhibition at 20 h in series [1] was no less than 50%.
Consider `CC(=O)N(C)[C@H]1CC[C@@]2(C)C(CC[C@@H]3[C@@H]2CC[C@]2(C)C(c4cncc(C)c4)=CC[C@@H]32)C1` (stereo partly drawn), for which the inhibition at 20 h in series [1] fell in the range of 10 to 50%.
Regarding `C[C@]12CC[C@H]3[C@@H](CC(F)C4(O)CC(=O)CC[C@]34C)[C@@H]1CC=C2c1cncc(F)c1` (stereo partly drawn), the IC50 in series [2] is no more than 11 nM. The inhibition at 20 h in series [1] is no less than 50%.
`C[C@]12CCC(=O)C(O)=C1C=C[C@@H]1[C@@H]2CC[C@]2(C)C(c3cccnc3)=CC[C@@H]12` registered a half-life at 1 µM in series [3] of 1 to 50 min. Besides, in series [1], the inhibition at 20 h was no less than 50%.
In the case of `C[C@]12CC[C@H]3[C@@H](CC(F)C4(O)CC(=O)CC[C@]34C)[C@@H]1CC=C2c1cccnc1` (stereo partly drawn), the half-inhibitory concentration (IC50) in series [2] is no more than 11 nM. The inhibition at 20 h in series [1] is no less than 50%.
As for `CC1C[C@H]2C3=CC=C(c4cncc(C(F)F)c4)[C@@]3(C)CC[C@@H]2[C@@]2(C)CCNC(=O)C=C12` (stereo partly drawn), the inhibition at 20 h in series [1] was less than 10%.
As for `CC[C@]1(O)CC[C@@]2(C)C(CC[C@@H]3[C@@H]2CC[C@]2(C)C(c4cccnc4)=CC[C@@H]32)C1` (stereo partly drawn), the half-life at 1 µM in series [3] was 1 to 50 min. Moreover, in series [1], the inhibition at 20 h lay within 10 to 50%.
On the same counts, the results for `C[C@]12CC[C@H](O)CC1=CC[C@@H]1[C@@H]2CC[C@]2(C)C(c3ccc(F)nc3)=CC[C@@H]12` are 1 to 50 min and 10 to 50%.
With `CCOc1cncc(C2=CC[C@H]3[C@@H]4CC[C@H]5C[C@@H](OC)CC[C@]5(C)[C@H]4CC[C@]23C)c1`, the inhibition at 20 h in series [1] was 10 to 50%.
Same read-out and setting: the figure for `CCNC(=O)NC1CC[C@@]2(C)C(CC[C@@H]3[C@@H]2CC[C@]2(C)C(c4cccnc4)=CC[C@@H]32)C1C` (stereo partly drawn) is less than 10%; for `C[C@]12CCNC(=O)CC1CCC1C2CC[C@]2(C)C(c3cncc(C(F)F)c3)=CCC12` (stereo partly drawn) it is no less than 50%; for `CC1(C)C(=O)CC[C@@]2(C)C1=CC[C@@H]1[C@@H]2CC[C@]2(C)C(c3cccnc3)=CC[C@@H]12` it is less than 10%.
As to `C[C@]12CCC(=O)C=C1C(=O)C[C@@H]1[C@@H]2CC[C@]2(C)C(c3cncc(F)c3)=CC[C@@H]12`, the 50% inhibitory concentration (IC50) in series [2] was no more than 11 nM. Further, the inhibition at 20 h in series [1] is no less than 50%.
For the compound `CO[C@H]1CC[C@@]2(C)C(=CC[C@@H]3[C@@H]2CC[C@]2(C)C(n4ccnc4)=CC[C@@H]32)C1`, the inhibition at 20 h in series [1] lay within 10 to 50%.
Regarding `CC(CO)(CO)C(=O)O[C@H]1CC[C@@]2(C)C(=CC[C@H]3C4=CC=C(c5cccnc5)[C@@]4(C)CC[C@@H]32)C1`, the inhibition at 20 h in series [1] was less than 10%.
`Cc1cnc(F)c(C2=CC[C@H]3[C@@H]4CC=C5C[C@@H](O)CC[C@]5(C)[C@H]4CC[C@]23C)c1`: in series [1], the inhibition at 20 h is 10 to 50%.
Turning to `C[C@]12CC[C@@H](NC(=O)C3CCC3)CC1=CC[C@@H]1[C@@H]2CC[C@]2(C)C(c3cccnc3)=CC[C@@H]12`, the concentration for half-maximal inhibition (IC50) in series [2] is no more than 11 nM. Also, the inhibition at 20 h in series [1] was no less than 50%.
Consider `C[C@]12CC[C@H]3[C@@H](CCC4=CC(=O)NCC[C@@]43C)C1=CC=C2c1cncc(C(F)F)c1`, for which the IC50 in series [2] was no more than 11 nM. Further, in series [1], the inhibition at 20 h is no less than 50%.
For the compound `CC1C(=O)CC[C@@]2(C)C1CC[C@@H]1[C@@H]2CC[C@]2(C)C(c3cccnc3)=CC[C@@H]12` (stereo partly drawn), the inhibition at 20 h in series [1] is 10 to 50%.
Same read-out and setting: the figure for `CC(=O)O[C@H]1CC[C@@]2(C)C(CC[C@H]3C4=CC=C(c5cnccc5C)[C@@]4(C)CC[C@@H]32)C1` (stereo partly drawn) is 10 to 50%.
With `Cc1cncc(C2=CC[C@H]3[C@@H]4CC=C5C[C@H](NC(=O)C6CC6)CC[C@]5(C)[C@H]4CC[C@]23C)c1`, in series [2], the concentration for half-maximal inhibition (IC50) is no more than 11 nM. Moreover, the inhibition at 20 h in series [1] was no less than 50%.
With `C[C@]12CC[C@H](O)CC1CC[C@@H]1[C@@H]2CC[C@]2(C)C(c3cccnc3)CC[C@@H]12` (stereo partly drawn), in series [1], the inhibition at 20 h was less than 10%.
In the case of `C[C@]12CC[C@H]3[C@@H](CCC4CC(F)(F)CC[C@@]43C)C1=CC=C2c1cccnc1` (stereo partly drawn), the IC50 in series [2] was no more than 11 nM.
Turning to `Cc1ccncc1C1=CC=C2[C@@H]3CC[C@H]4CNC(=O)CC[C@]4(C)[C@H]3CC[C@]12C`, the inhibition at 20 h in series [1] was 10 to 50%.
With `C[C@]12CCC(F)(F)CC1CC[C@@H]1[C@@H]2CC[C@]2(C)C(c3cccnc3)=CC[C@@H]12` (stereo partly drawn), the IC50 in series [2] is no more than 11 nM.
On the same count and under the same terms, the figure for `C[C@]12CC[C@H]3[C@@H](CCC4=CC(=O)CC[C@@]43C)C1=CC=C2c1cncc(N)c1` is no more than 11 nM.
For the compound `CC(=O)N[C@@H]1CC[C@@]2(C)C(=CC[C@@H]3[C@@H]2CC[C@]2(C)C(c4cncc(C(F)(F)F)c4)=CC[C@@H]32)C1`, the half-life at 1 µM in series [3] lay within 1 to 50 min. Moreover, in series [1], the inhibition at 20 h is 10 to 50%.
Turning to `C[C@@]1(O)CC[C@@]2(C)C(=CC[C@@H]3[C@@H]2CC[C@]2(C)C(c4cccnc4)=CC[C@@H]32)C1`, the inhibition at 20 h in series [1] was no less than 50%.
With `COC(=O)c1cncn1C1=CC[C@H]2[C@@H]3CC=C4C[C@@H](O)CC[C@]4(C)[C@H]3CC[C@]12C`, the inhibition at 20 h in series [1] was in the range of 10 to 50%.
On to `C[C@]12CC/C(=N\O)C=C1C(F)C[C@@H]1[C@@H]2CC[C@]2(C)C(c3cccnc3)=CC[C@@H]12` (stereo partly drawn), for which the inhibition at 20 h in series [1] was in the range of 10 to 50%.
Turning to `CC(=O)O[C@H]1CC[C@@]2(C)C(=CC[C@H]3C4=CC=C(n5ccnc5)[C@@]4(C)CC[C@@H]32)C1`, the IC50 in series [2] was no more than 11 nM.
As to `C[C@]12CCC(=O)C=C1C(n1ccnn1)C[C@@H]1[C@@H]2CC[C@]2(C)C(c3cccnc3)=CC[C@@H]12` (stereo partly drawn), the inhibition at 20 h in series [1] fell in the range of 10 to 50%.
For the compound `CC1=C2CC[C@@H]3[C@H](CC[C@]4(C)C(c5cccnc5)=CC[C@@H]34)[C@@]2(C)CCC1O` (stereo partly drawn), the IC50 in series [2] is no more than 11 nM. For the same compound, the inhibition at 20 h in series [1] lay in the range of 10 to 50%.
In the case of `CC1=C2CC[C@H]3C4=CC=C(c5cccnc5)[C@@]4(C)CC[C@@H]3[C@@]2(C)CCC1O` (stereo partly drawn), the IC50 in series [2] is no more than 11 nM.
Turning to `Cc1cncc(C2=CC=C3[C@@H]4CCC5CC(=O)NCC[C@]5(C)[C@H]4CC[C@]23C)c1` (stereo partly drawn), in series [2], the IC50 is no more than 11 nM. For the same compound, in series [1], the inhibition at 20 h is no less than 50%.
In turn, `CC1(C)C2=CC[C@H]3C4=CC=C(c5cccnc5)[C@@]4(C)CC[C@@H]3[C@@]2(C)CCC1O` (stereo partly drawn) had a half-life at 1 µM in series [3] of 1 to 50 min. Also, the inhibition at 20 h in series [1] lay within 10 to 50%.
On to `C[C@]12CC[C@H](O)CC1CC[C@@H]1[C@@H]2CC[C@]2(C)C(c3ccc[n+]([O-])c3)CC[C@@H]12` (stereo partly drawn), for which, in series [1], the inhibition at 20 h fell in the range of 10 to 50%.
On the same count and under the same terms, the figure for `C[C@@]1(O)CC[C@@]2(C)C(CCC3C4=CC=C(c5cccnc5)[C@@]4(C)CC[C@@H]32)C1` (single isomer, unassigned) is less than 10%; for `CC1(O)CC2CC[C@@H]3C(CC[C@]4(C)C(c5cccnc5)=CC[C@@H]34)[C@@]2(C)C1` (single isomer, unassigned) it is 10 to 50%.
On the same count and under the same terms, the figure for `C[C@]12CC[C@@H](NS(C)(=O)=O)CC1=CC[C@H]1C3CC=C(c4cccnc4)[C@@]3(C)CC[C@@H]12` (single isomer, unassigned) is 10 to 50%; for `C[C@]12CCC(N)CC1CC[C@@H]1[C@@H]2CC[C@]2(C)C(c3cccnc3)=CC[C@@H]12` (single isomer, unassigned) it is 10 to 50%.
On the same count and under the same terms, the figure for `C#CC1(O)CC[C@@]2(C)C(CC[C@@H]3[C@@H]2CC[C@]2(C)C(c4cccnc4)=CC[C@@H]32)C1` (single isomer, unassigned) is 10 to 50%; for `CNC1CC[C@@]2(C)C(CCC3[C@@H]2CC[C@]2(C)C(c4cncc(C)c4)=CC[C@@H]32)C1` (single isomer, unassigned) it is 10 to 50%.
